Measured values published in patent US6319910A, “Method for inhibiting cyclooxygenase-2 and tumor necrosis factor alpha” (Hospital for Joint Diseases, priority 1998, dated 2001).
“Also recorded” adds a separate entry of the source.

How the values were obtained:
[1] = test system: iNOS mRNA; conditions: Amin et al, 1997b; words; cited from earlier work
[2] = test system: NOS; assay: NOS expression in LPS-stimulated murine macrophages; assay type: cell-based; conditions: FIG. 2; LPS 100 ng/ml; words
Protocol: RAW 263.7 cells were grown as previously described (Amin et al, 1995b). Murine macrophages stimulated with 100 ng/ml LPS were incubated with CMT-3 or tunicamycin (a glycosylation inhibitor). […] Nitrite and PGE2 were estimated as previously described (Amin et al, 1995b). It is quite possible that CMT-3 may inhibit COX-2 and PGE2 production by post translational modification of COX-2 which may be similar to tunicamycin inhibition. The data represents the mean±SD evaluated by T test (n=3).

[3] = test system: NOS; conditions: previously shown; words; cited from earlier work
[4] = test system: OA-affected cartilage; assay: Spontaneous PGE2 release by OA-affected cartilage (ex vivo organ culture); assay type: cell-based, human
Protocol: (§1) Human osteoarthritis affected cartilage spontaneously release nitric oxide (NO) and PGE2 in the medium as previously reported (Amin et al, 1995a; 1997a). The OA-organ cultures were set up as described (Amin et al, 1995a; 1997a). Briefly, total knee articular cartilage from tibial plateau and femoral condyle were harvested from OA-affected patients. The cartilage was mixed and cut into 3-mm discs and 4-6 discs were placed in triplicate or quadruplicate, in a 24-well plate in 2.0 ml of Ham's F-12 medium supplemented with 0.2% endotoxin free human albumin, 10 mM Hepes pH 7.4 and antibiotics in the presence of various modulators, as previously described (Amin et al, 1995a; 1997a). CMT-8 was used at pharmacologically relevant concentrations in DMSO (<0.01% final concentration) as carrier. An equivalent amount of DMSO was also added in the control cultures.
(§2) The p value between control and CMT-8 treated values for PGE2≤0.1 (insignificant) whereas the p values between NMMA treated cartilage and CMT-8 treated cartilage was ≤0.001 (significant). The data are represented as mean±SD as examined by T test when n=3. Data represent±SD value as determined by Student's t test n=4. The P values described are compared with control unstimulated OA-cartilage. The data represents one of the two similar experiments. P values for PGE2 and Nitrite=^a≤0.5; ^b≤0.1; ^c≤0.05; ^d≤0.01.

[5] = test system: OA-affected cartilage; assay: Spontaneous nitrite/nitric oxide release by OA-affected cartilage (ex vivo organ culture); assay type: cell-based, human
Protocol: as §1, §2

[6] = test system: bovine chondrocytes; assay: PGE2 production in LPS stimulated bovine chondrocytes (radioimmunoassay); assay type: cell-based; conditions: FIGS. 3 and 9, words
Protocol: After 48 hours the medium was changed and the cells were incubated with CMT-3 or N-monomethyl arginine (NMMA) for 2 hours before stimulating them with 100 μg/ml LPS. DMSO was used as a carrier for the modulators and the DMSO concentration was maintained (<0.01% v/v) in the cultures. Equivalent amounts of DMSO was also added to the control cultures. The levels of COX-2 dependent PGE2 release was assayed after 72 hrs by radioimmunoassay. […] The data represents mean±SD which was evaluated by T test where n=3.

[7] = test system: RAW 264.7 cells; assay: PGE2 production/accumulation in LPS-stimulated RAW 264.7 cells; assay type: cell-based, murine; conditions: for inhibition at 10 µg/mL: Mus musculus, RAW264.7, 16 h, read-out: PGE2 % Inhibition or (Increase)
Protocol: (§3) Murine macrophages (RAW 263.7 cells) which were grown in Dulbecco's modified eagle medium (DMEM) containing 10% fetal bovine serum, 2 mM glutamine, 50 U/ml penicillin and 50 μg/ml streptomycin, were stimulated with 100 ng/ml LPS to induce both NOS and COX-2 at 16 hr. […] The data presented in FIG. 1 represents mean±SD as examined by T test were n=3.
(§4) The effects of CMTs 1, 2, 3, 5 and 8 on PGE2 and NO accumulation in RAW 264.7 cells were further evaluated as described above for CMT-3. […]

[8] = test system: RAW 264.7 cells; assay: Nitrite (NO) production/accumulation in LPS-stimulated RAW 264.7 cells; assay type: cell-based, murine; conditions: LPS 100 ng/ml; for Nitrite / inhibition at 10 µg/mL: compound 10 μg/ml; for Effect on NO production: words; for inhibition at 10 µg/mL: Mus musculus, RAW264.7, 16 h
Protocol: as §3, §4

[9] = test system: COX-2; assay: COX-2 expression in cells/cartilage (general statement); assay type: cell-based; conditions: words
[10] = words; cited from earlier work
[11] = human OA-affected cartilage, words
[12] = Experiment II, LPS 100 ng/ml, compound 10 μg/ml, 16 hours

NC(=O)C1=C(O)C2(O)C(=O)C3=C(O)c4c(O)cccc4CC3CC2CC1=O (centres unmarked) [CMT-3, 6-demethyl-6-deoxy-4-dedimethylaminotetracycline]
Effect on iNOS mRNA expression [1]: inhibiting iNOS mRNA expression
Effect on NOS expression [2]: inhibit
NOS activity [3]: inhibit NOS activity
inhibition at 5 µg/mL ([4]; Homo sapiens, Table 2, 5 μg/ml): 60%
PGE2 ([4]; Table 2, 5 μg/ml): 88.0 ± 21.4 ng/mL
Effect on PGE2 production [4, 11]: significantly inhibit; also recorded: inhibits COX-2 expression and PGE2 production
Nitrite ([5]; Table 2, 5 μg/ml): 75.0 ± 25.0 µM
Effect on NO production [5, 11]: significantly inhibit; also recorded: inhibiting NO production
Effect on PGE2 production ([6]; LPS 100 μg/ml, 72 hrs): inhibit NO and PGE2 production
Effect on L-NMMA induced PGE2 up-regulation [6]: inhibits the L-NMMA induced PGE2 up-regulation
PGE2 accumulation ([7]; 16 h, 10 ug/mL): 8.7 ± 2.4 ng/mL
PGE2 accumulation [7, 12]: 6.5 ± 0.5 ng/mL
Effect on L-NMMA induced PGE2 production ([7]; FIG. 1, CMT-3+L-NMMA, LPS 100 ng/ml, words): blocks L-NMMA induced PGE2 production
Effect on PGE2 production ([7]; FIG. 1, LPS 100 ng/ml, 16 hours, words): blocks both NO and PGE2 production
Effect on PGE2 production ([7]; FIG. 2, LPS 100 ng/ml, words): inhibit
inhibition at 10 µg/mL ([7]; Experiment I, LPS 100 ng/ml, compound 10 μg/ml, 16 hours): 66%
inhibition at 10 µg/mL [7, 12]: 67%
Effect on COX-2 activity ([7]; independent of intracellular NO, words): inhibits COX-2 activity independent of intracellular NO concentrations
Nitrite ([8]; Experiment I, 16 hours): 24.7 µM
Nitrite ([8]; Experiment II, 16 hours): 11.7 µM
Effect on NO production ([8]; FIG. 1, 16 hours): blocks both NO and PGE2 production
Effect on NO production ([8]; FIG. 2): inhibit
inhibition at 10 µg/mL ([8]; Experiment I, 16 hours): 48%
inhibition at 10 µg/mL ([8]; Experiment II, 16 hours): 46%
Effect on COX-2 expression [9]: inhibits COX-2 expression and PGE2 production
Antimicrobial activity [10]: no antimicrobial activity
